US20220339135A1, “COMPOSITIONS AND METHODS FOR MODULATING AN INFLAMMATORY RESPONSE” (Enzychem Lifesciences Corporation, priority 2019, published 2022)

Tests used:
[1] = system: p47phox in Raw264.7 cells; assay: LPS-induced p47phox recruitment; format: cell-based; details: LPS/PLAG treatment
Protocol: Raw264.7 cells were divided into two groups: 1) LPS treated group and 2) LPS/PLAG treated group. For the LPS treated group, cells were treated with 100 μg/ml of DMSO (as solvent control) for 1 hour and treated with LPS (100 ng/ml) for 15, 30, 60, and 120 minutes. For LPS/PLAG treated group, cells were treated with PLAG (100 μg/ml) for 1 hour and treated with LPS (100 ng/ml) for 15, 30, 60, and 120 minutes. Cells were then fixed and stained using rat anti-TLR4/MD2 antibody with Alexa488-conjugated anti-rat IgG secondary antibody. These were analyzed by confocal microscopy. Raw264.7 cells stimulated under the same conditions were fixed, permeabilized, and stained with CM-H2DCFDA, the LYSO-ID® Lysosomal Detection Kit and rabbit anti-p47phox. Confocal microscopy was performed; all data shown represent one experiment performed in triplicate.

[2] = system: Pseudomonas aeruginosa strain K (PAK) in BALF; assay: PAK clearance in AC regimen-induced immunocompromised mice; format: in vivo; details: PLAG 250 mg/kg oral once daily 5 days, BALF 3 and 6 hours after infection
Protocol: To establish a chemotherapy-induced immunocompromised mice model, the mice were administered a single intravenous injection of 50 mg/kg cyclophosphamide and 2.5 mg/kg doxorubicin (AC regimen). After 5 days from the injection of AC regimen, blood samples were collected from an intra-orbital vein using EDTA capillary tubes, and the number of circulating neutrophils was measured by complete blood cell count (CBC) analysis using Mindray BC-5300 auto-hematology analyzer (Shenzhen Mindray Bio-medical Electronics, China). Pseudomonas aeruginosa strain K (PAK) was grown overnight in LB broth at 37° C. with agitation and then harvested by centrifugation at 13,000×g for 2 minutes. […] The diluted bacteria were administrated to the mice by intranasal injection. Bronchoalveolar lavage fluid (BALF) samples were collected from the PAK-infected mice at different time points after infection in normal mice model and in AC regimen-induced immunocompromised mice model. […] The number of viable bacteria in BALF was determined by counting the number of colonies formed in the plates. […] The BALF samples were harvested at 3 and 6 hours after the infection, and live PAK in BALF after AC regimen and AC regimen/PLAG treatment was determined by counting with colony-forming units (FIG. 6B).

[3] = system: intracellular ROS in HaCaT cells; assay: IMQ-induced intracellular ROS; format: cell-based; details: IMQ/PLAG treated cells
Protocol: HaCaT cells were divided into two groups: 1) IMQ treated group and 2) IMQ/PLAG treated group. For IMQ treated group, cells were stimulated with IMQ (5 μg/ml) for 0, 2.5, 5, 7.5, 10, 15, 30, 60, 120 minutes. For IMQ/PLAG treated group, cells were pre-incubated with PLAG (100 μg/ml) for 1 hour and then stimulated with IMQ (5 μg/ml) for 0, 2.5, 5, 7.5, 10, 15, 30, 60, 120 minutes. (A) To detect ADORA2A on the membrane surface, cells were fixed with 2% paraformaldehyde (Sigma-Aldrich) and were blocked with PBS containing 1% BSA (Gibco, Waltham, Mass., USA). They were incubated with rabbit anti-ADORA2A antibody (Thermo) and Alexa488 conjugated anti-rabbit IgG (Invitrogen) without permeabilization. (B) To detect intracellular ROS, cells were treated with FITC conjugated-CM-H2DCFDA (Invitrogen, Carlsbad, Calif., USA) for 30 min before PLAG treating. For confocal microscopy analysis, cells were washed with PBS and mounted in DAPI-containing fluorescence microscopy mounting medium (Invitrogen). Samples were analyzed with a laser scanning confocal microscope (Carl Zeiss, Oberkochen, Germany).

[4] = system: radiation-induced lung injury; assay: Radiation-induced lung injury in mice; format: in vivo
Protocol: Balb/c mice were grouped into four groups: 1) control group, 2) radiation group, 3) radiation+EC-18 50 mg/kg of PLAG, and 4) radiation+EC-18 250 mg/kg of PLAG. Lung was extracted at day 3 after 6.11Gy of TBI by γ-ray (FIG. 37A). EC-18 was treated daily. Tissue was fixed with formaldehyde, and H&E staining was carried out.

Compound: CCCCC/C=C\C/C=C\CCCCCCCC(=O)OC(COC(C)=O)COC(=O)CCCCCCCCCCCCCCC (racemic) [PLAG, 1-palmitoyl-2-linoleoyl-3-acetylglycerol]
- p47phox recruitment initiated [1]: 15 min
- return to homeostatic levels of p47phox [1]: 60 min
- bacterial clearance (live PAK CFU in BALF) [2]: significantly accelerates
- ROS formation starts [3]: 2.5 min
- ROS returns to homeostatic levels [3]: 10 min
- pulmonary capillary leakage ([4]; 6.11Gy TBI, day 3, dose-dependently): less pulmonary capillary leakage
- leakage erythrocyte at the interstitial tissue ([4]; PLAG 50mpk and 250mpk): not observed
